20 molecules from ChEMBL document CHEMBL4417631, “Oral peptide inhibitors of interleukin-23 receptor and their use to treat inflammatory bowel diseases” (2017) can be followed below.

pIC50: −log10 of the molar value. Where a SMILES comes first, the peptide text is derived from it. [ ]: non-standard residue; d: D form. hLeu = CC(C)CC[C@H](N)C(=O)O

The test addresses T1, Interleukin-23 receptor (Homo sapiens, UniProt Q5VWK5).
T1 sequence (Q5VWK5 whole entry): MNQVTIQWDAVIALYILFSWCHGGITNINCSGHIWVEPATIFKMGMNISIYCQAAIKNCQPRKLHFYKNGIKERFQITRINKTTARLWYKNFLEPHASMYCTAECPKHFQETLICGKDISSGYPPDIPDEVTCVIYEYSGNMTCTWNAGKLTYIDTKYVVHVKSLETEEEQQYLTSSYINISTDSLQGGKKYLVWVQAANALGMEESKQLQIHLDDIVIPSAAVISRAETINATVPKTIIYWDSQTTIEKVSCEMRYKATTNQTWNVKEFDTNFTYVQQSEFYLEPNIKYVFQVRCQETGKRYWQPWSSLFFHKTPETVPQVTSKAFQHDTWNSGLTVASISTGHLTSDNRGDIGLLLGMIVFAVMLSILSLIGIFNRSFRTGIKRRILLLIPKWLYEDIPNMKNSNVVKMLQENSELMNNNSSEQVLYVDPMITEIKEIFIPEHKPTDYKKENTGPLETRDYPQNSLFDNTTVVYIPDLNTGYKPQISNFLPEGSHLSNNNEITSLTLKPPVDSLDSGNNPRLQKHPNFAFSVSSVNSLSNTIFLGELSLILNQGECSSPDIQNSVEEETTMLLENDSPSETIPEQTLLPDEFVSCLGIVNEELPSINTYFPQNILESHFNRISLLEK
Description: Inhibition of interleukin-23 binding to human interleukin-23 receptor incubated for 2 hrs by competitive binding ELISA.
For `CC(=O)N[C@@H](CS)C(=O)N[C@@H](CCC(N)=O)C(=O)N[C@H](C(=O)N[C@@H](CC(N)=O)C(=O)N[C@@H](CCC(N)=O)C(=O)N[C@@H](CS)C(=O)N[C@@H](Cc1ccc(O)cc1)C(=O)N[C@@H](Cc1c[nH]c2ccccc12)C(=O)N[C@@H](CCC(C)C)C(=O)N[C@@H](CCC(=O)O)C(=O)N[C@@H](CC(N)=O)C(=O)NCC(N)=O)[C@@H](C)O` (Ac-CQTNQCYW[hLeu]ENG-NH2), the pIC50 (in general, the negative decadic logarithm of the IC50, by convention in mol/L) was less than 5.00.
In turn, `CC(=O)NC(=O)[C@@H](CCCCNC(=O)COCC(=O)NCCCC[C@@H](NCCC(=O)N[C@@H](CS)C(=O)N[C@@H](C)C(=O)N[C@@H](CC(=O)O)C(=O)N[C@@H](Cc1c[nH]c2ccccc12)C(=O)N[C@H](C(=O)N[C@@H](CS)C(=O)N[C@@H](Cc1ccc(O)cc1)C(=O)N[C@@H](Cc1c[nH]c2ccccc12)C(=O)N[C@@H](Cc1cnc[nH]1)C(=O)N[C@H](C(=O)N[C@@H](Cc1ccccc1)C(=O)NCC(=O)O)[C@@H](C)O)C(C)C)C(=O)NC(C)=O)NCCC(=O)N[C@@H](CS)C(=O)N[C@@H](C)C(=O)N[C@@H](CC(=O)O)C(=O)N[C@@H](Cc1c[nH]c2ccccc12)C(=O)N[C@H](C(=O)N[C@@H](CS)C(=O)N[C@@H](Cc1ccc(O)cc1)C(=O)N[C@@H](Cc1c[nH]c2ccccc12)C(=O)N[C@@H](Cc1cnc[nH]1)C(=O)N[C@H](C(=O)N[C@@H](Cc1ccccc1)C(=O)NCC(=O)O)[C@@H](C)O)C(C)C` showed a negative logarithm of the IC50 (pIC50) of less than 5.00.
To `CC(=O)NC1C/C=C\CCC(C(=O)N[C@@H](Cc2ccc(O)cc2)C(=O)N[C@@H](Cc2c[nH]c3ccccc23)C(=O)N[C@@H](CCCNC(=N)N)C(=O)N[C@@H](CCCCN)C(=O)N[C@@H](Cc2ccccc2)C(=O)NCC(=O)NCCOCC(=O)N[C@H](CCCCN)C(N)=O)NC(=O)[C@H](CCC(N)=O)NC(=O)[C@H](Cc2c[nH]c3ccccc23)NC(=O)[C@H]([C@@H](C)O)NC(=O)[C@H](CCCNC(=N)N)NC1=O` (stereo not given in full) belongs 6.00 to 7.00.
Turning to `CC(C)[C@H](NC(=O)[C@H](Cc1c[nH]c2ccccc12)NC(=O)[C@@H](NC(=O)[C@H](CCC(N)=O)NC(=O)[C@@H](N)CS)[C@@H](C)O)C(=O)N[C@@H](CS)C(=O)N[C@@H](Cc1ccc(O)cc1)C(=O)N[C@@H](Cc1c[nH]c2ccccc12)C(=O)N[C@@H](Cc1cnc[nH]1)C(=O)N[C@H](C(=O)N[C@@H](Cc1ccc(O)cc1)C(=O)NCC(N)=O)[C@@H](C)O` (H-CQTWVCYWHTYG-NH2), the negative logarithm of the IC50 (pIC50) was less than 6.00.
In the case of `CC(=O)N[C@@H](CS)C(=O)N(C)[C@@H](CCCCN)C(=O)N[C@H](C(=O)N[C@@H](Cc1c[nH]c2ccccc12)C(=O)N[C@@H](CCC(N)=O)C(=O)N[C@@H](CS)C(=O)N[C@@H](Cc1ccc(O)cc1)C(=O)N[C@@H](Cc1c[nH]c2ccccc12)C(=O)N[C@@H](CCCNC(=N)N)C(=O)N[C@H](C(=O)N[C@@H](Cc1ccccc1)C(=O)NCC(=O)NCCOCC(=O)N[C@H](CCCCN)C(N)=O)C(C)C)[C@@H](C)O`, the pIC50 was 7.10.
Molecule `CC(=O)N[C@@H](CS)C(=O)N[C@@H](C)C(=O)N[C@@H](CC(=O)O)C(=O)N[C@@H](Cc1c[nH]c2ccccc12)C(=O)N[C@H](C(=O)N[C@@H](CS)C(=O)N[C@@H](Cc1ccc(O)cc1)C(=O)N[C@@H](Cc1cccc2ccccc12)C(=O)N[C@@H](Cc1cnc[nH]1)C(=O)NCCOCCC(N)=O)C(C)C` had a pIC50 of less than 6.00.
As for `CC(=O)N[C@@H](CS)C(=O)N[C@@H](C)C(=O)N[C@@H](CC(=O)O)C(=O)N[C@@H](Cc1c[nH]c2ccccc12)C(=O)N[C@H](C(=O)N[C@@H](CS)C(=O)N[C@@H](Cc1ccc(O)cc1)C(=O)N[C@H](C(=O)N[C@@H](CCCN)C(=O)N[C@@H](CN)C(=O)N[C@@H](Cc1ccccc1)C(=O)NCC(=O)NCCOCC(=O)N[C@H](CCCCN)C(N)=O)C1CCC(c2ccccc2)CC1)C(C)C` (stereo not given in full), the figure is less than 5.52; as for `CC(=O)N[C@@H](CS)C(=O)N[C@@H](CCC(N)=O)C(=O)N[C@H](C(=O)N[C@@H](Cc1c[nH]c2ccccc12)C(=O)N[C@@H](CCC(N)=O)C(=O)N[C@@H](CS)C(=O)N[C@@H](Cc1ccc(O)cc1)C(=O)N[C@@H](Cc1c[nH]c2ccccc12)C(=O)N[C@@H](CC1CCCC1)C(=O)N[C@@H](CCC(=O)O)C(=O)N[C@@H](CC(N)=O)C(=O)NCC(=O)NCCOCC(=O)N[C@H](CCCCN)C(N)=O)[C@@H](C)O`, greater than 6.30.
The molecule `CC(=O)N[C@@H](CS)C(=O)N[C@@H](CCC(N)=O)C(=O)N[C@H](C(=O)N[C@@H](Cc1c[nH]c2ccccc12)C(=O)N[C@@H](CCC(N)=O)C(=O)N[C@@H](CS)C(=O)N[C@@H](Cc1ccc(O)cc1)C(=O)N[C@@H](Cc1c[nH]c2ccccc12)C(=O)N[C@H](CCCNC(=N)N)C(=O)N[C@H](CCC(=O)O)C(=O)N[C@@H](CC(N)=O)C(=O)NCC(=O)NCCOCC(=O)N[C@H](CCCCN)C(N)=O)[C@@H](C)O` showed a pIC50 of less than 6.00.
To `CC(=O)N[C@@H](CS)C(=O)N[C@@H](CCCNC(=N)N)C(=O)N[C@@H](CC(=O)O)C(=O)N[C@@H](Cc1c[nH]c2ccccc12)C(=O)N[C@@H](CCC(N)=O)C(=O)N[C@@H](CS)C(=O)N[C@@H](Cc1ccc(O)cc1)C(=O)N[C@@H](Cc1c[nH]c2ccccc12)C(=O)N[C@@H](CCCNC(=N)N)C(=O)N[C@H](CCCCN)C(=O)N[C@@H](Cc1ccccc1)C(=O)NCC(=O)NCCOCCC(=O)N[C@H](CCCCN)C(N)=O` belongs less than 6.00; to Ac-QTWQCYWRK(Ac)NG-NH2, greater than 6.30.
As to `CC(=O)N[C@H]1CCSC[C@@H](C(=O)N[C@@H](Cc2ccc(OCCN)cc2)C(=O)N[C@@H](Cc2ccc3ccccc3c2)C(=O)N[C@@](C)(CCCCN)C(=O)N[C@@H](CCC(=O)O)C(=O)N[C@@H](CC(N)=O)C(=O)NCC(N)=O)NC(=O)[C@H](CCC(N)=O)NC(=O)[C@H](CCCNCc2ccccc2)NC(=O)[C@H]([C@@H](C)O)NC(=O)[C@H](CCC(N)=O)NC1=O`, the negative-log IC50 (pIC50) was less than 5.52.
To `CC(C)[C@H](NC(=O)[C@H](Cc1c[nH]c2ccccc12)NC(=O)[C@H](CC(=O)O)NC(=O)[C@H](C)NC(=O)[C@@H](N)CS)C(=O)N[C@@H](CS)C(=O)N[C@@H](Cc1ccc(O)cc1)C(=O)N[C@@H](Cc1ccc2ccccc2c1)C(=O)N[C@@H](Cc1cnc[nH]1)C(=O)N[C@H](C(=O)N[C@@H](Cc1ccccc1)C(=O)NCC(N)=O)[C@@H](C)O` belongs 6.00 to 6.30; to `CCCCCCCCCCCCCCCC(=O)NCCCC[C@H](NC(=O)[C@H](Cc1c[nH]c2ccccc12)NC(=O)[C@@H](NC(=O)[C@H](CCC(N)=O)NC(=O)[C@H](CS)NC(C)=O)[C@@H](C)O)C(=O)N[C@@H](CS)C(=O)N[C@@H](Cc1ccc(O)cc1)C(=O)N[C@@H](Cc1c[nH]c2ccccc12)C(=O)N[C@@H](CC(C)C)C(=O)N[C@@H](CCC(=O)O)C(=O)N[C@@H](CC(N)=O)C(=O)NCC(N)=O`, 4.52; to `CC(=O)N[C@@H](CS)C(=O)N[C@@H](CCC(N)=O)C(=O)N[C@H](C(=O)N[C@H](C(=O)N[C@@H](CCC(N)=O)C(=O)N[C@@H](CS)C(=O)N[C@@H](Cc1ccc(O)cc1)C(=O)N[C@@H](Cc1c[nH]c2ccccc12)C(=O)N[C@@H](CCC(C)C)C(=O)N[C@@H](CCC(=O)O)C(=O)N[C@@H](CC(N)=O)C(=O)NCC(N)=O)[C@@H](C)O)[C@@H](C)O` (Ac-CQTTQCYW[hLeu]ENG-NH2), less than 5.00.
As for `CC(=O)N[C@@H](CS)C(=O)N[C@@H](C)C(=O)N[C@@H](CC(=O)O)C(=O)N[C@@H](Cc1c[nH]c2ccccc12)C(=O)N[C@H](C(=O)N[C@@H](CS)C(=O)N[C@@H](Cc1ccc(O)cc1)C(=O)N[C@@H](Cc1c[nH]c2ccccc12)C(=O)N[C@@H](Cc1cnc[nH]1)C(=O)N[C@H](C(=O)N[C@@H](Cc1ccccc1)C(=O)NCC(=O)NCCOCC(=O)N[C@H](CCCCN)C(=O)O)[C@@H](C)O)C(C)C`, the figure is greater than 6.30.
To `CC(=O)N[C@@H](CS)C(=O)N[C@@H](C)C(=O)N[C@@H](CC(=O)O)C(=O)N[C@@H](Cc1c[nH]c2ccccc12)C(=O)N[C@H](C(=O)N[C@@H](CS)C(=O)N[C@@H](Cc1ccc(O)cc1)C(=O)N[C@@H](Cc1c[nH]c2ccccc12)C(=O)N[C@@H](Cc1cnc[nH]1)C(=O)N[C@@H](CCC(=O)O)C(=O)N[C@@H](Cc1ccccc1)C(=O)NCC(N)=O)C(C)C` belongs 6.00 to 6.30; to `CC(=O)NCCCC[C@H](NC(=O)[C@](C)(CCCCN)NC(=O)[C@H](Cc1ccc2ccccc2c1)NC(=O)[C@H](CCc1ccc(O)cc1)NC(=O)[C@@H]1CSCC[C@H](NC(C)=O)C(=O)N[C@@H](CCC(N)=O)C(=O)N[C@@H]([C@@H](C)O)C(=O)N[C@@H](Cc2c[nH]c3ccccc23)C(=O)N[C@@H](CCC(N)=O)C(=O)N1)C(=O)N[C@@H](CC(N)=O)C(=O)NCC(N)=O`, less than 6.00; to `CC(=O)NCCCC[C@H](NC(=O)[C@](C)(CCCCN)NC(=O)[C@H](Cc1ccc2ccccc2c1)NC(=O)[C@H](Cc1ccc(O)cc1)NC(=O)[C@@H]1CSCC[C@H](NC(C)=O)C(=O)N[C@@H](CCC(N)=O)C(=O)N[C@@H]([C@@H](C)O)C(=O)N[C@@H](Cc2c[nH]c3ccccc23)C(=O)N[C@@H](CCC(N)=O)C(=O)N1)C(=O)N[C@@H](CC(N)=O)C(=O)NCC(=O)NCC(=O)N[C@@H](CCC(=O)O)C(N)=O`, 7.00 to 7.60.
As to `CC(=O)N[C@@H](CS)C(=O)N[C@@H](CCC(N)=O)C(=O)N[C@H](C(=O)N[C@@H](Cc1c[nH]c2ccccc12)C(=O)N[C@@H](CCC(N)=O)C(=O)N[C@@H](CS)C(=O)N[C@@H](Cc1ccc(O)cc1)C(=O)N[C@@H](Cc1c[nH]c2ccccc12)C(=O)N[C@@H](CCONC(=N)N)C(=O)N[C@@H](CCC(=O)O)C(=O)N[C@@H](CC(N)=O)C(=O)NCC(=O)NCCOCC(=O)N[C@H](CCCCN)C(N)=O)[C@@H](C)O`, the pIC50 is greater than 6.30.
